Experimental data as given in patent publication US8314110B2, “Compounds for treating mental disorders, and preparation and uses thereof” (priority 2007, dated 2012).

Legend:
[1] = Dissolution of the oral conventional tablets; format: physicochemical
Protocol: Tablets were obtained by direct tabletting, and each tablet contained 6 mg of active ingredient (expressed in the compound [formula (II)]).

[2] = Dissolution of oral sustained-release capsules; format: physicochemical
Protocol: Granules were obtained by using conventional fluidized bed.
After the coating was dried, the coated granules were filled into hard gelatin capsules, each capsule contain 6 mg of the active ingredient (expressed in the compound [formula (II)]), and the coating degree was 6%. The capsules were subjected to dissolution tests according the method specified in the Pharmacopoeia of the People's Republic of China.

[3] = Metabolism of the compounds to the active component (compound [formula (II)]) in liver cells; conditions: human liver cells S9, 1 mM NADPH, 37° C., 2 hours; metabolized to the compound [formula (II)]
Source text: After the precipitated proteins were removed by centrifugation, the obtained supernatant solution was adjusted to pH of 3 with concentrated potassium phosphate solution, and centrifuged again. The obtained supernatant was directly injected into HPLC for analysis.

[4] = Absolute bioavailability, beagle tests of the compound [formula (II)] and its prodrugs; format: in vivo; conditions: iv, dosage equimolar to the prodrug, compound [formula (II)] in blood
Protocol: Measurement of the Absolute Bioavailability—Beagle Tests of the Compound [Formula (II)] and its Prodrugs, the Compounds 1, 2, 3, 5, 6, 7 and 8
Twenty one beagles weighing about 10 kg were divided into 7 groups, and intragastrically administered the compounds 1, 2, 3, 5, 6, 7 and 8 at a dosage of 9.4 μmol/beagle, respectively. Blood samples were taken at the predetermined time points, and the concentrations of the active metabolite (the compound [formula (II)]) and prodrugs in blood were measured. In the meantime, three beagles weighing about 10 kg were intravenously administered with the compound [formula (II)] at a dosage equimolar to the prodrug, as the control group, and the concentrations of the compound [formula (II)] in blood were measured.
The prodrugs were immediately metabolized almost completely to form the active metabolite in beagle body, the compound [formula (II)] upon being administrated parenterally, and the concentrations of the original compounds were very low (see: FIG. 1C).

[5] = oral administration; cited from earlier work

Row | Dissolution percentage of the active ingredient ([1]; dissolution time 2 hours) | Dissolution percentage of the active ingredient ([1]; dissolution time 4 hours) | Dissolution percentage of the active ingredient ([1]; dissolution time 8 hours) | Dissolution percentage of the active ingredient ([2]; dissolution time 2 hours) | Dissolution percentage of the active ingredient ([2]; dissolution time 4 hours) | Dissolution percentage of the active ingredient ([2]; dissolution time 8 hours) | Dissolution percentage of the active ingredient ([2]; dissolution time 12 hours) | Dissolution percentage of the active ingredient ([2]; dissolution time 24 hours) | Metabolic rate (%) [3] | Structure (SMILES) | other results
1 | 45% | 76% | 93% | 5.3% | 22% | 41% | 59% | 82% | 93% | CCCCCOC(=O)OC1CCCn2c1nc(C)c(CCN1CCC(c3noc4cc(F)ccc34)CC1)c2=O.Cl.Cl (stereo not drawn) [Compound 7, 3-{2-[4-(6-fluoro-1,2-benzoisoxazol-3-yl)-1-piperidinyl]ethyl}-2-methyl-4-oxo-6,7,8,9-tetrahydro-pyrido[1,2-α]pyrimidin-9-yl n-pentyl carbonate dihydrochloride] | –
2 | – | – | – | – | – | – | – | – | 78% | Cc1ccc(C(=O)OC2CCCn3c2nc(C)c(CCN2CCC(c4noc5cc(F)ccc45)CC2)c3=O)cc1 (stereo not drawn) [Compound 2, 3-{2-[4-(6-fluoro-1,2-benzoisoxazol-3-yl)-1-piperidinyl]ethyl}-2-methyl-4-oxo-6,7,8,9-tetrahydro-pyrido[1,2-α]pyrimidin-9-yl 4-methylbenzoate] | –
3 | – | – | – | – | – | – | – | – | 89% | Cc1nc2n(c(=O)c1CCN1CCC(c3noc4cc(F)ccc34)CC1)CCCC2OC(=O)Oc1ccc([N+](=O)[O-])cc1.Cl (stereo not drawn) [Compound 9, 3-{2-[4-(6-fluoro-1,2-benzoisoxazol-3-yl)-1-piperidinyl]ethyl}-2-methyl-4-oxo-6,7,8,9-tetrahydro-pyrido[1,2-α]pyrimidin-9-yl p-nitrophenyl carbonate hydrochloride] | –
4 | – | – | – | – | – | – | – | – | – | Cc1nc2n(c(=O)c1CCN1CCC(c3noc4cc(F)ccc34)CC1)CCCC2O (stereo not drawn) [9-hydroxy risperidone, 3-{2-[4-(6-fluoro-benzo[d]isoxazol-3-yl)piperidin-1-yl]-ethyl}-9-hydroxy-2-methyl-6,7,8,9-tetrahydro-pyrido[1,2-α]pyrimidin-4-one] | Cmax ([4]; beagle, dog, 9.4 μmol/beagle): 360 ng/mL; half-life ([4]; beagle, dog, 9.4 μmol/beagle): 2.51 h; AUC [4]: 2422 nghr/ml; absolute bioavailability [5]: 28%
5 | – | – | – | – | – | – | – | – | 94% | Cc1nc2n(c(=O)c1CCN1CCC(c3noc4cc(F)ccc34)CC1)CCCC2OC(=O)Oc1ccccc1.Cl (stereo not drawn) [Compound 8, 3-{2-[4-(6-fluoro-1,2-benzoisoxazol-3-yl)-1-piperidinyl]ethyl}-2-methyl-4-oxo-6,7,8,9-tetrahydro-pyrido[1,2-α]pyrimidin-9-yl phenyl carbonate hydrochloride] | –
6 | 43% | 79% | 98% | 8.8% | 19% | 42% | 68% | 89% | 92% | Cc1nc2n(c(=O)c1CCN1CCC(c3noc4cc(F)ccc34)CC1)CCCC2OC(=O)OCC(C)C.Cl.Cl (stereo not drawn) [Compound 6, 3-{2-[4-(6-fluoro-1,2-benzoisoxazol-3-yl)-1-piperidinyl]ethyl}-2-methyl-4-oxo-6,7,8,9-tetrahydro-pyrido[1,2-α]pyrimidin-9-yl isobutyl carbonate dihydrochloride] | –
7 | – | – | – | – | – | – | – | – | 95% | CCOC(=O)OC1CCCn2c1nc(C)c(CCN1CCC(c3noc4cc(F)ccc34)CC1)c2=O.Cl (stereo not drawn) [Compound 5, 3-{2-[4-(6-fluoro-1,2-benzoisoxazol-3-yl)-1-piperidinyl]ethyl}-2-methyl-4-oxo-6,7,8,9-tetrahydro-pyrido[1,2-α]pyrimidin-9-yl ethyl carbonate hydrochloride] | –
8 | 35% | 67% | 92% | 8.9% | 26% | 60% | 76% | 94% | 89% | Cc1nc2n(c(=O)c1CCN1CCC(c3noc4cc(F)ccc34)CC1)CCCC2OC(=O)c1ccccc1 (stereo not drawn) [Compound 1, 3-{2-[4-(6-fluoro-1,2-benzoisoxazol-3-yl)-1-piperidinyl]-ethyl}-2-methyl-4-oxo-6,7,8,9-tetrahydro-pyrido[1,2-α]pyrimidin-9-yl benzoate] | –
9 | – | – | – | – | – | – | – | – | – | Cc1nc2n(c(=O)c1CCN1CCC(c3noc4cc(F)ccc34)CC1)CCCC2 [Risperidone] | absolute bioavailability [5]: at least 70%
